Data reported in patent US8105567B2, “Multidentate AZA ligands able to complex metal ions and the use thereof in diagnostics and therapy” (Bracco Imaging SpA, priority 2001, dated 2012).
One block for each compound: values may come before it.

Experiments:
[1] = Potentiometric measurements: Gd complexation constant; type: physicochemical
Experimental: (§1) All the pH metric measurements (pH=−log [H^+]) were carried out in degassed 0.1 mol dm^−3 NMe4NO3 solutions, at 298.1 K, by using a Metrohm 670 Titroprocessor equipped with a Metrohm 6.0203.100 combined pH electrode. Prior to each potentiometric titration, the combined Metrohm electrode was calibrated as a hydrogen concentration probe by titrating known amounts of HCl with CO2-free NMe4OH solutions and determining the equivalent point by the Gran's method which allows to determine the standard potential E^o, and the ionic product of water. In the complexation experiments the metal ion concentration was about 80% of the ligand concentration. At least three measurements (about 100 data points each one) were performed for each system in the pH range 2.5-10.5 and the relevant e.m.f. data were treated by means of the computer programs […] and […] which furnished the protonation and the complexation constants.

[2] = Relaxivity of the Gd(III) complex; type: physicochemical; conditions: 25° C., pH 7 and 20 MHz
Experimental: The relaxivity determined at 25° C., pH 7 and 20 MHz for said complex is 7.1 mM^−1 s^−1.

[3] = Exchange time (tM) by transverse water 17O NMR relaxation time at variable temperature; type: physicochemical; conditions: 298 K
From the text: The exchange time (tM) value of the Gd(III) complex of the example 1 has been assessed by measuring the transverse water ^17O NMR relaxation time at variable temperature according to the procedure described by Aime et al., in the above cited literature.
Obtained value turned out to be 90 ns at 298 K. Albeit the optimal value (about 30 ns) has not been attained, this exchange rate can be considered quite fast, especially if compared with that of (Gd-DO3A), the Gd(III) complex of reference, with two water molecules in the inner sphere, whose tM value is 160 ns.

[4] = NMRD profile fitting (molecular reorientational time); type: physicochemical; conditions: calculated from fitting of the NMRD profile
[5] = Relaxivity as a function of the pH; type: physicochemical; conditions: FIG. 3
From the text: The relaxivity of this complex was further tested as a function of the pH.

[6] = Affinity for lactate ions (titration of 1 mM Gd(III) complex, ternary complex formation); type: physicochemical; conditions: for KA (association constant) with lactate ions: titration with lactate ions
Experimental: (§2) A test, to further evaluate the lack of formation of ternary complexes was performed. As a non-limiting example, we measured the affinity of the compound of example 1 for lactate and phosphate ions. The determination was performed directly by adding increasing amounts of each anion to a 1 mM solution of the Gd(III) complex.
Conversely analogous titrations of Gd-DO3A and Gd-DO3MA (both endowed with q=2) with lactate ions yielded KA values of 150 M^−1 and 110 M^−1, respectively.

[7] = Affinity for phosphate ions (titration of 1 mM Gd(III) complex, ternary complex formation); type: physicochemical; conditions: increasing amounts of anion added to 1 mM complex, FIG. 4
Experimental: as §2

[8] = Potentiometric measurements: protonation constants of the ligand; type: physicochemical; conditions: 0.1 mol dm^−3 NMe4NO3, 298.1 K
Experimental: as §1

[9] = reference complex with two water molecules in the inner sphere; cited from earlier work
PC-3 tumors = test: Biodistribution and tumor targeting of 177Lu complexes in the human PC-3 nude mouse model; type: in vivo; conditions: 177Lu complex
Experimental: For biodistribution studies, the radiolabeled compounds were prepared as described above except that a 1:1 molar ratio of ligand to Lutetium was used to guarantee complete chelation of all starting ligand. […] The remaining solution was further diluted to the required radioconcentration using Bacteriostatic saline/ASCOR L500® Ascorbic Acid Injection USP mixed in a 9 to 1 [v/v]) ratio.
10-50 μCi of the HPLC purified compounds were administered to each mouse by i.v. tail vein injection, n=4 per group. At 1 h, 1 and 7 days post injection, the mice were terminated and the organs and tissues were harvested. Radioactivity was assayed in a gamma counter. The data was expressed as percentage of the total administered radioactivity (% ID) for the urine combined with the bladder, as well as for the blood pool; and percentage of the total administered radioactivity per gram (% ID/g) for all the other tested organs

Compound: O=C([O-])CN1CCNCCN(CC(=O)[O-])CCN(CC(=O)[O-])CC1.[Gd+3] [Gd-DO3A, reference compound]
KA (association constant) with lactate ions [6]: 150 M⁻¹
tM value (reference complex) [9]: 160 ns

Compound: CC(C(=O)[O-])N1CCNCCN(C(C)C(=O)[O-])CCN(C(C)C(=O)[O-])CC1.[Gd+3] (stereo not drawn) [Gd-DO3MA, reference compound]
KA (association constant) with lactate ions [6]: 110 M⁻¹

Compound: CC1(N(CC(=O)O)CC(=O)O)CN(CC(=O)O)[C@@H]2CCCC[C@H]2N(CC(=O)O)C1 [Compound 94]
clearance of Lu-177 from the body (in words) (PC-3 tumors; PC-3 nude mouse): rapidly cleared from the body with little residual localization in any organs or tissue
Blood 1 h % ID (PC-3 tumors; i.v., 1 h post injection, blood): 0.39 ± 0.29 % ID
Blood 24 h % ID (PC-3 tumors; i.v., 24 h post injection, blood): 0.01 ± 0.01 % ID
Blood 7 d % ID (*72 h timepoint) (PC-3 tumors; i.v., 72 h timepoint, blood): 0.00 ± 0.00 % ID

Further lines, with some results ahead:

LogKGd ([1]; M + L = ML, 0.1 mol dm^−3 NMe4NO3, 298.1 K): 21.52 (1)
LogKGd (conditional, pH 7.4) ([1]; conditional, pH 7.4): LogKGd (conditional, pH 7.4) = 17.06
relaxivity [2]: 7.1 mM⁻¹ s⁻¹
tR (molecular reorientational time) [4]: 80 ps
relaxation rate over the investigated pH range [5]: substantially constant
Compound: Gd(III) Complex of 1,4-Bis(carboxymethylmethyl)-6-[bis(hydroxycarbonyl-methyl)amino]-6-methylperhydro-1,4-diazepine [Gd(III) complex of Example 1]
exchange time (tM) [3]: 90 ns
interaction with lactate ions ([6]; increasing amounts of anion added to 1 mM complex, FIG. 4): complete absence of interaction
KA (association constant) with lactate ions [6]: does not show any measurable association constant
interaction with phosphate ions [7]: complete absence of interaction

Log KH ([8]; H2L + H = H3L): 4.09 (3)
Log KH ([8]; H3L + H = H4L): 2.60 (3)
Log KH ([8]; H4L + H = H5L): 1.44 (4)
Log KH ([8]; H + L = HL): 11.80 (2)
Log KH ([8]; HL + H = H2L): 6.55 (2)
Compound: CC1(N(CC(=O)O)CC(=O)O)CN(CC(=O)O)CCN(CC(=O)O)C1 [Example 1, 1,4-Bis(carboxymethyl)-6-[bis(carboxymethyl)amino]-6-methyl-perhydro-1,4-diazepine]
